The record followed here is PubChem BioAssay (NCI).

Among the test systems are 786-0 renal; COLO 205 colon; MDA-MB-231 breast; PC-3 prostate; SF-295 CNS; SK-MEL-2 melanoma; SK-MEL-28 melanoma; SN12C renal; T-47D breast; UACC-62 melanoma.
Assay in all cases: growth of human tumour cells (NCI), 48 h

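Briefly, cells in 96-well plates were exposed to five compound concentrations for 48 h, and endpoints were estimated by linear interpolation. At the TGI there is no net growth.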 *1 amine or outer side, *2 acyl side, *3 side chain or, on linkers, in order; H or OH if unused. Where a SMILES comes first, the peptide text is derived from it. Bridges are numbered along the chain shown (N, C = ends). Roman numbers before positions name the chains, in order. [ ]: non-standard residue; d: D form. Actinocin(9to1) = Cc1c2oc3c(C)ccc(C(=O)[*:1])c3nc-2c(C(=O)[*:2])c(N)c1=O; Hyp = O=C(O)[CH]1C[CH](O)CN1; NMeV = CN[CH](C(=O)O)C(C)C; Sar = CNCC(=O)O A value given as a limit tells only on which side of the number the result lay.

Consider `Cc1c2oc3c(C)ccc(C(=O)NC4C(=O)NC(C(C)C)C(=O)N5CC(O)CC5C(=O)N(C)CC(=O)N(C)C(C(C)C)C(=O)OC4C)c3nc-2c(C(=O)NC2C(=O)NC(C(C)C)C(=O)N3CC(O)CC3C(=O)N(C)CC(=O)N(C)C(C(C)C)C(=O)OC2C)c(N)c1=O` (centres undefined) (I: TV[Hyp][Sar][NMeV] / II: TV[Hyp][Sar][NMeV]; ester I:1-I:C, II:1-II:C; linker I:N-II:N via Actinocin(9to1); configuration not given here), for which the TGI in the assay on 786-0 renal, in the assay with COLO 205 colon, in the assay on MDA-MB-231 breast, with PC-3 prostate, in the assay with SF-295 CNS and in the assay with SK-MEL-2 melanoma was above 1 µM throughout. Moreover, the TGI in the assay on SK-MEL-28 melanoma, with SN12C renal and in the assay on T-47D breast was above 1 µM each time.

Regarding `Cc1nc2c(cc1OCc1ccccc1)C(=O)C1=C(C2=O)C2OC(=O)CC2OC1(C)C` (centres undefined), the TGI with 786-0 renal turned out to be 1.07 µM; in the assay on COLO 205 colon, 1.15 µM; in the assay with MDA-MB-231 breast, 1.51 µM; in the assay on PC-3 prostate, 1.8 µM; with SK-MEL-28 melanoma, 1.14 µM; with SN12C renal it was 0.443 µM. Further, the TGI with T-47D breast is 1.23 µM; in the assay with UACC-62 melanoma, 0.322 µM.

As to `CCCCSC1=N/C(=C\c2ccc(N(C)C)cc2)C(=O)N1`, the TGI in the assay on 786-0 renal was 42.9 µM; with COLO 205 colon, above 100 µM; in the assay with MDA-MB-231 breast it was 75.8 µM; in the assay with PC-3 prostate it was 19.3 µM; in the assay on SF-295 CNS it was above 100 µM; with SK-MEL-28 melanoma, above 100 µM. Further, the values for the TGI with SN12C renal, with T-47D breast and with UACC-62 melanoma were 33.5 µM, 81.8 µM and 81.3 µM, respectively.

`Cc1c(Cl)cccc1N=NC(=O)NNc1cccc(Cl)c1C`: the TGI amounted to 37.7 µM in the assay on 786-0 renal; 37.1 µM with MDA-MB-231 breast; 26.1 µM in the assay with PC-3 prostate; 26.4 µM in the assay with SK-MEL-2 melanoma; 30.1 µM in the assay with SK-MEL-28 melanoma; 32.4 µM in the assay on SN12C renal. Further, the TGI was 24.2 µM with T-47D breast and 25.5 µM with UACC-62 melanoma.

Regarding `CN(O)C(=O)CCCC(=O)NCC(C)(C)CNC(=O)CCCC(=O)N(C)O`, the TGI in the assay with COLO 205 colon, in the assay with MDA-MB-231 breast, with PC-3 prostate, in the assay with SF-295 CNS, in the assay on SK-MEL-2 melanoma and in the assay on T-47D breast was above 100 µM in each case. For the same compound, in the assay with UACC-62 melanoma, the TGI is above 100 µM.

`Cn1c2ccccc2c2cc(N3CCCC3)c3c(c21)C(=O)N(c1ccccc1)C3=O`: the TGI with 786-0 renal was 95.5 µM; with COLO 205 colon it was above 100 µM; in the assay on MDA-MB-231 breast it was above 100 µM; in the assay with PC-3 prostate, above 100 µM; in the assay on SF-295 CNS it was above 100 µM; in the assay on SK-MEL-28 melanoma, above 100 µM. Also, the TGI in the assay on SN12C renal, in the assay with T-47D breast and with UACC-62 melanoma was above 100 µM throughout.

Turning to `CCN(CC)c1ccc(/C=C2\CCc3ccc([N+](=O)[O-])cc3C2=O)cc1`, the TGI with 786-0 renal is above 100 µM; in the assay with COLO 205 colon, above 100 µM; in the assay on MDA-MB-231 breast it was above 100 µM; in the assay with PC-3 prostate, above 100 µM; in the assay on SF-295 CNS, 7.55 µM; in the assay with SK-MEL-28 melanoma it was above 100 µM. Also, the TGI in the assay on SN12C renal, in the assay with T-47D breast and in the assay with UACC-62 melanoma was above 100 µM in each case.

As for `Cc1cc2c(cc1C)C(=O)C1(C2)Cc2cc3c(cc2C1=O)CCC3` (centres undefined), the TGI in the assay on 786-0 renal, in the assay with COLO 205 colon, in the assay on PC-3 prostate, in the assay with SF-295 CNS, in the assay with SK-MEL-2 melanoma and with SK-MEL-28 melanoma was above 100 µM each time. Besides, the TGI with SN12C renal, in the assay on T-47D breast and with UACC-62 melanoma was above 100 µM throughout.

Turning to `COc1ccc(-c2ncn(C[Si](C)(C)C)c2-c2ccc(OC)cc2)cc1`, the TGI was determined as 18.7 µM in the assay with 786-0 renal; 11.7 µM in the assay on COLO 205 colon; 27.6 µM with MDA-MB-231 breast; 16.9 µM in the assay with PC-3 prostate; 18.3 µM in the assay with SF-295 CNS; 20.5 µM with SK-MEL-2 melanoma. Moreover, the TGI was found to be 14.8 µM with SK-MEL-28 melanoma, 24.3 µM in the assay on SN12C renal and 10.2 µM in the assay with UACC-62 melanoma.

As to `O=C(N/N=C\c1cccc2ccccc12)Nc1cccc2ccccc12`, the TGI in the assay with 786-0 renal is 28.1 µM; in the assay on COLO 205 colon it was above 100 µM; in the assay with MDA-MB-231 breast, 45.8 µM; with PC-3 prostate, above 100 µM; in the assay on SK-MEL-2 melanoma, above 100 µM; in the assay on SK-MEL-28 melanoma it was above 100 µM. Moreover, the TGI in the assay on SN12C renal and in the assay with T-47D breast was above 100 µM in each case.

Consider `O=c1[nH]c2nccn2c2c1SCCN2`, for which the TGI in the assay with 786-0 renal, with COLO 205 colon, in the assay on PC-3 prostate, in the assay with SF-295 CNS, in the assay with SK-MEL-2 melanoma and in the assay with SK-MEL-28 melanoma was above 100 µM each time. For the same compound, the TGI with SN12C renal, in the assay on T-47D breast and with UACC-62 melanoma was above 100 µM each time.

`CC(C)C(=O)/C=C/S/C=C/C(=O)C(C)C`: the TGI in the assay with 786-0 renal was 6.52 µM; with COLO 205 colon, 8.16 µM; in the assay on MDA-MB-231 breast, 15.9 µM; in the assay with SF-295 CNS, above 100 µM; with SK-MEL-2 melanoma, above 100 µM; in the assay with SK-MEL-28 melanoma, 21.1 µM. In addition, the TGI with SN12C renal was 29.6 µM; in the assay on T-47D breast, 65.7 µM; with UACC-62 melanoma, 27.9 µM.

Regarding `CNC(=O)SCC(NC(=O)CCC(N)C(=O)O)C(=O)NCC(=O)O` (centres undefined), the TGI with COLO 205 colon, with SF-295 CNS, with SK-MEL-2 melanoma, with SK-MEL-28 melanoma, in the assay on SN12C renal and in the assay on UACC-62 melanoma was above 100 µM throughout.

Take `COC(=O)c1c2c(cc3c1CC1(Cc4cc5c(c(C(C)=O)c4C1)CCCC5)C3)CCCC2` (centres undefined): the TGI in the assay with 786-0 renal is above 100 µM; with COLO 205 colon, above 100 µM; in the assay with MDA-MB-231 breast it was above 100 µM; in the assay on PC-3 prostate, above 100 µM; in the assay with SF-295 CNS it was above 100 µM; with SK-MEL-2 melanoma, 44.5 µM. Moreover, the TGI in the assay with SN12C renal, in the assay on T-47D breast and in the assay on UACC-62 melanoma was above 100 µM in each case.

For the compound `C=CC(C)C1(CCCOCc2ccccc2)C(=S)N2CCC3(CC24CCCC14)OCCO3` (centres undefined), the TGI with COLO 205 colon, in the assay with SF-295 CNS, with SK-MEL-2 melanoma, in the assay on SK-MEL-28 melanoma, in the assay on SN12C renal and with UACC-62 melanoma was above 100 µM each time.
